Measurements: patent US20230022841A1, “ISARIDIN CYCLODEPSIPEPTIDE DERIVATIVES, AND PREPARATION AND APPLICATION THEREOF” (Sun Yat-sen University, priority 2022, published 2023)

Columns and labels:
[1] = system: ADP-induced platelet aggregation; assay: ADP-induced platelet aggregation in vitro (platelet-rich plasma, turbidimetric method); assay type: cell-based, Kunming mice; details: 5 min; mouse platelet-rich plasma, ADP inducer, 37° C., maximum aggregation rate within 5 min; values stated as approximate; read-out: IC50, inhibition of ADP-induced platelet aggregation
Protocol: Compounds I-1 to I-9 and I-13 to I-15 prepared in Example 1 were tested for their inhibitory effects on the ADP-induced platelet aggregation in vitro to evaluate the anti-thrombotic activities, and the test process was specifically described as follows.
Kunming mice were anesthetized with pentobarbital sodium, and blood was collected from the celiac artery, where the syringe was added with 3.2% sodium citrate for anti-coagulation in advance (a volume ratio of whole blood to the anticoagulant was 9:1). The mixture was gently mixed and centrifuged at 1000 r/min for 10 min to collect the supernatant as the platelet-rich plasma (PRP). The remaining part was centrifuged at 3000 r/min for 10 min to obtain platelet-poor plasma (PPP). […]
For the blank control group, 1% DMSO was mixed with 295 μL of PRP; for the drug group, 5 μL of the isaridin derivatives with different concentrations (a final concentration of 0-100 μM) was mixed with 295 μL of PRP; and regarding the positive control group, aspirin was mixed with plasma to a final concentration of 120 μM. […] Three parallel samples were tested for each group, and the platelet aggregation rate was measured at 37° C. by turbidimetric method, where the maximum aggregation rate within 5 min was recorded.
The platelet aggregation rate was expressed as the maximum platelet aggregation rate, and the results were expressed as the inhibition rate. […]

[2] = system: LPS-induced RAW264.7 cells; assay: NO release from LPS-induced macrophage RAW264.7 cells (Griess); assay type: cell-based; details: Mus musculus, LPS 1 μg/mL, 24 h, Griess reagent, read-out: half maximal inhibitory concentration (IC50), NO release inhibition
Protocol: The effect of the compounds I-1 to I-9 and I-13 to I-15 prepared in Example 1 on the NO release from LPS-induced macrophage RAW264.7 cells was investigated to evaluate the anti-inflammatory activity, which was specifically described as follows.
Lipopolysaccharide (LPS); indomethacin (Indomethacin, Indo, positive control); mouse mononuclear macrophages (RAW264.7); dimethyl sulfoxide (DMSO); Methylthiazolyldiphenyl-tetrazolium bromide (MTT, 5 mg/mL); and Griess reagent nitrite measurement kit (Beyotime Biotechnology Co., Ltd).
The compounds were respectively dissolved in DMSO to obtain a series of 10 mM stock solutions, which were diluted with Dulbecco's modified eagle medium (DMEM) to a required concentration (DMSO<2%) for use.
RAW264.7 cells (1×10^5 cells/mL) were inoculated into a 96-well plate at 100 μL per well and incubated at 37° C. and 5% CO2 for 12 h. Different concentrations of samples containing LPS (with a final concentration of 1 μg/mL) were respectively loaded on the plate. […] After that, the absorbance of each well of the 96-well plate at 540 nm was measured with a microplate reader and then plugged into the standard curve to calculate the NO release level. […]

IC50 [1] [µM] | IC50 [2] [µM] | Compound
120 | – | CC(=O)Oc1ccccc1C(=O)O [aspirin]
– | 38 | COc1ccc2c(c1)c(CC(=O)O)c(C)n2C(=O)c1ccc(Cl)cc1 [indomethacin]
